Laboratory results published in ChEMBL document CHEMBL3885861, “Open TG-GATES”.

Species: Rattus norvegicus
Assay: Open TG-GATES - Regimen: Daily Repeat
Assay type: toxicity, organism-based, Sprague-Dawley
Set-up: regimen Daily Repeat, gender Male, age 6 weeks
Conditions: in vivo, po, route gavage; for APTT / Bas / Eos / Fbg / Hb / Ht / Lym / MCH / MCHC / MCV / Mono / Neu / PT / Plat / RBC / Ret / WBC: tissue Blood; for KIDNEY_L / KIDNEY_R / KIDNEY_TOTAL: tissue Kidney; for LIVER: tissue Liver; for A/G / ALP / ALT / AST / BUN / CRE / Ca / Cl / DBIL / GLC / IP / K / LDH / Na / PL / RALB / TBIL / TC / TG / TP / gamma-GTP: tissue Plasma
[1] = 0 mg/kg, 72 h, dose level Control, time 3 day
[2] = 0 mg/kg, […], dose level Control, time 7 day
[3] = 0 mg/kg, […], dose level Control, time 14 day
[4] = 0 mg/kg, […], dose level Control, time 28 day
[5] = 60 mg/kg, 72 h, dose level Low, time 3 day
[6] = 60 mg/kg, […], dose level Low, time 7 day
[7] = 60 mg/kg, […], dose level Low, time 14 day
[8] = 60 mg/kg, […], dose level Low, time 28 day

CCOC(=O)[C@H](CCc1ccccc1)N[C@@H](C)C(=O)N1CCC[C@H]1C(=O)O
TERMINAL_BW [1]: 253.2 g
APTT [1]: 16 s
Bas [1]: 0%
Eos [1]: 1%
Fbg [1]: 242 mg/dL
Hb [1]: 13.2 g/dL
Ht [1]: 40.1%
Lym [1]: 73.6%
MCH [1]: 21 pg
MCHC [1]: 32.9%
MCV [1]: 63.9 fL
Mono [1]: 7.8%
Neu [1]: 17.4%
PT [1]: 11.8 s
Plat [1]: 123.1 x10_4/uL
RBC [1]: 627.6 x10_4/ul
Ret [1]: 6.6%
WBC [1]: 111.6 x10_2/uL
KIDNEY_L [1]: 1.1 g
KIDNEY_R [1]: 1.1 g
KIDNEY_TOTAL [1]: 2.2 g
LIVER [1]: 12.4 g
A/G [1]: 1.8
ALP [1]: 993.8 IU/L
ALT [1]: 38.6 IU/L
AST [1]: 63.4 IU/L
BUN [1]: 19 mg/dL
CRE [1]: 0.5 mg/dL
Ca [1]: 11 mg/dL
Cl [1]: 105 meq/L
DBIL [1]: 0.022 mg/dL
GLC [1]: 209.8 mg/dL
IP [1]: 9 mg/dL
K [1]: 4.7 meq/L
LDH [1]: 82.2 IU/L
Na [1]: 141.4 meq/L
PL [1]: 149.6 mg/dL
RALB [1]: 3.8 g/dL
TBIL [1]: 0.4 mg/dL
TC [1]: 81 mg/dL
TG [1]: 114.6 mg/dL
TP [1]: 5.9 g/dL
gamma-GTP [1]: 1.2 IU/L
TERMINAL_BW [2]: 279.2 g
TERMINAL_BW [3]: 338.3 g
TERMINAL_BW [4]: 401.8 g
APTT [2]: 16.4 s
Bas [2]: 0%
Eos [2]: 1.2%
Fbg [2]: 227.8 mg/dL
Hb [2]: 13.9 g/dL
Ht [2]: 41.9%
Lym [2]: 78.8%
MCH [2]: 21.4 pg
MCHC [2]: 33.3%
MCV [2]: 64.6 fL
Mono [2]: 6%
Neu [2]: 14%
PT [2]: 11.6 s
Plat [2]: 121.8 x10_4/uL
RBC [2]: 649.6 x10_4/ul
Ret [2]: 6.5%
WBC [2]: 122 x10_2/uL
APTT [3]: 16.5 s
Bas [3]: 0%
Eos [3]: 1%
Fbg [3]: 232.8 mg/dL
Hb [3]: 13.9 g/dL
Ht [3]: 41.7%
Lym [3]: 79.2%
MCH [3]: 20.6 pg
MCHC [3]: 33.3%
MCV [3]: 61.8 fL
Mono [3]: 5.8%
Neu [3]: 13.4%
PT [3]: 11.4 s
Plat [3]: 115 x10_4/uL
RBC [3]: 675.8 x10_4/ul
Ret [3]: 4.1%
WBC [3]: 143.8 x10_2/uL
APTT [4]: 17.7 s
Bas [4]: 0%
Eos [4]: 1.2%
Fbg [4]: 249 mg/dL
Hb [4]: 15.3 g/dL
Ht [4]: 46.4%
Lym [4]: 80%
MCH [4]: 19.3 pg
MCHC [4]: 33%
MCV [4]: 58.3 fL
Mono [4]: 6%
Neu [4]: 12.6%
PT [4]: 11.6 s
Plat [4]: 107.8 x10_4/uL
RBC [4]: 797.4 x10_4/ul
Ret [4]: 3.1%
WBC [4]: 125.5 x10_2/uL
KIDNEY_L [2]: 1.2 g
KIDNEY_R [2]: 1.2 g
KIDNEY_TOTAL [2]: 2.4 g
KIDNEY_L [3]: 1.3 g
KIDNEY_R [3]: 1.3 g
KIDNEY_TOTAL [3]: 2.6 g
KIDNEY_L [4]: 1.4 g
KIDNEY_R [4]: 1.4 g
KIDNEY_TOTAL [4]: 2.8 g
LIVER [2]: 14 g
LIVER [3]: 15.8 g
LIVER [4]: 16.1 g
A/G [2]: 2.1
ALP [2]: 778.4 IU/L
ALT [2]: 37.8 IU/L
AST [2]: 62 IU/L
BUN [2]: 18.2 mg/dL
CRE [2]: 0.5 mg/dL
Ca [2]: 10.7 mg/dL
Cl [2]: 106 meq/L
DBIL [2]: 0.002 mg/dL
GLC [2]: 207 mg/dL
IP [2]: 8.6 mg/dL
K [2]: 5 meq/L
LDH [2]: 89.2 IU/L
Na [2]: 140.2 meq/L
PL [2]: 157.4 mg/dL
RALB [2]: 4 g/dL
TBIL [2]: 0.4 mg/dL
TC [2]: 78.2 mg/dL
TG [2]: 130.2 mg/dL
TP [2]: 5.9 g/dL
gamma-GTP [2]: 1.6 IU/L
A/G [3]: 1.6
ALP [3]: 684 IU/L
ALT [3]: 31 IU/L
AST [3]: 58.2 IU/L
BUN [3]: 19.6 mg/dL
CRE [3]: 0.6 mg/dL
Ca [3]: 10.9 mg/dL
Cl [3]: 106.4 meq/L
DBIL [3]: 0 mg/dL
GLC [3]: 209.6 mg/dL
IP [3]: 8 mg/dL
K [3]: 4.4 meq/L
LDH [3]: 105.2 IU/L
Na [3]: 140 meq/L
PL [3]: 162.2 mg/dL
RALB [3]: 3.9 g/dL
TBIL [3]: 0.3 mg/dL
TC [3]: 77 mg/dL
TG [3]: 172 mg/dL
TP [3]: 6.2 g/dL
gamma-GTP [3]: 1.4 IU/L
A/G [4]: 1.9
ALP [4]: 643.2 IU/L
ALT [4]: 29.2 IU/L
AST [4]: 54.2 IU/L
BUN [4]: 19.2 mg/dL
CRE [4]: 0.7 mg/dL
Ca [4]: 10.7 mg/dL
Cl [4]: 107.2 meq/L
DBIL [4]: 0.036 mg/dL
GLC [4]: 202.6 mg/dL
IP [4]: 7 mg/dL
K [4]: 4.5 meq/L
LDH [4]: 61 IU/L
Na [4]: 140.2 meq/L
PL [4]: 145 mg/dL
RALB [4]: 4 g/dL
TBIL [4]: 0.3 mg/dL
TC [4]: 66.4 mg/dL
TG [4]: 128.2 mg/dL
TP [4]: 6.2 g/dL
gamma-GTP [4]: 1.4 IU/L
TERMINAL_BW [5]: 243.2 g
APTT [5]: 16.2 s
Bas [5]: 0%
Eos [5]: 0.8%
Fbg [5]: 233.6 mg/dL
Hb [5]: 13.1 g/dL
Ht [5]: 39.8%
Lym [5]: 82.6%
MCH [5]: 21.3 pg
MCHC [5]: 32.9%
MCV [5]: 64.8 fL
Mono [5]: 5.2%
Neu [5]: 11.4%
PT [5]: 11.6 s
Plat [5]: 124.4 x10_4/uL
RBC [5]: 614.6 x10_4/ul
Ret [5]: 5.5%
WBC [5]: 105.6 x10_2/uL
KIDNEY_L [5]: 1.1 g
KIDNEY_R [5]: 1.1 g
KIDNEY_TOTAL [5]: 2.2 g
LIVER [5]: 11.8 g
A/G [5]: 2
ALP [5]: 985.6 IU/L
ALT [5]: 32.8 IU/L
AST [5]: 63.2 IU/L
BUN [5]: 20.2 mg/dL
CRE [5]: 0.5 mg/dL
Ca [5]: 10.9 mg/dL
Cl [5]: 105.8 meq/L
DBIL [5]: 0.028 mg/dL
GLC [5]: 189.2 mg/dL
IP [5]: 8 mg/dL
K [5]: 5 meq/L
LDH [5]: 90.6 IU/L
Na [5]: 140.2 meq/L
PL [5]: 160 mg/dL
RALB [5]: 4 g/dL
TBIL [5]: 0.3 mg/dL
TC [5]: 81 mg/dL
TG [5]: 93 mg/dL
TP [5]: 6.1 g/dL
gamma-GTP [5]: 2 IU/L
TERMINAL_BW [6]: 259.7 g
TERMINAL_BW [7]: 311.1 g
TERMINAL_BW [8]: 389.4 g
APTT [6]: 15.6 s
Bas [6]: 0%
Eos [6]: 0.6%
Fbg [6]: 232 mg/dL
Hb [6]: 13.5 g/dL
Ht [6]: 40.7%
Lym [6]: 84.6%
MCH [6]: 20.6 pg
MCHC [6]: 33.2%
MCV [6]: 61.9 fL
Mono [6]: 5%
Neu [6]: 9.2%
PT [6]: 11.6 s
Plat [6]: 124.1 x10_4/uL
RBC [6]: 658.4 x10_4/ul
Ret [6]: 4.8%
WBC [6]: 134.2 x10_2/uL
APTT [7]: 16.1 s
Bas [7]: 0%
Eos [7]: 1.2%
Fbg [7]: 247.4 mg/dL
Hb [7]: 14.3 g/dL
Ht [7]: 43%
Lym [7]: 76%
MCH [7]: 20.1 pg
MCHC [7]: 33.2%
MCV [7]: 60.7 fL
Mono [7]: 6.6%
Neu [7]: 16.2%
PT [7]: 11.3 s
Plat [7]: 118.7 x10_4/uL
RBC [7]: 710.6 x10_4/ul
Ret [7]: 3.5%
WBC [7]: 107.1 x10_2/uL
APTT [8]: 16.8 s
Bas [8]: 0%
Eos [8]: 1%
Fbg [8]: 252.6 mg/dL
Hb [8]: 15.1 g/dL
Ht [8]: 45.4%
Lym [8]: 85.6%
MCH [8]: 19.3 pg
MCHC [8]: 33.3%
MCV [8]: 58 fL
Mono [8]: 4.4%
Neu [8]: 8.8%
PT [8]: 11.6 s
Plat [8]: 108.6 x10_4/uL
RBC [8]: 782.8 x10_4/ul
Ret [8]: 3.5%
WBC [8]: 132.2 x10_2/uL
KIDNEY_L [6]: 1.1 g
KIDNEY_R [6]: 1.1 g
KIDNEY_TOTAL [6]: 2.3 g
KIDNEY_L [7]: 1.3 g
KIDNEY_R [7]: 1.3 g
KIDNEY_TOTAL [7]: 2.5 g
KIDNEY_L [8]: 1.5 g
KIDNEY_R [8]: 1.5 g
KIDNEY_TOTAL [8]: 3 g
LIVER [6]: 12.2 g
LIVER [7]: 13.6 g
LIVER [8]: 16.3 g
A/G [6]: 2.1
ALP [6]: 880.6 IU/L
ALT [6]: 32.6 IU/L
AST [6]: 61.8 IU/L
BUN [6]: 21.2 mg/dL
CRE [6]: 0.6 mg/dL
Ca [6]: 10.9 mg/dL
Cl [6]: 104 meq/L
DBIL [6]: 0.002 mg/dL
GLC [6]: 209.2 mg/dL
IP [6]: 8.6 mg/dL
K [6]: 5 meq/L
LDH [6]: 116.2 IU/L
Na [6]: 138 meq/L
PL [6]: 168.4 mg/dL
RALB [6]: 4 g/dL
TBIL [6]: 0.3 mg/dL
TC [6]: 88.8 mg/dL
TG [6]: 121.2 mg/dL
TP [6]: 5.9 g/dL
gamma-GTP [6]: 1 IU/L
A/G [7]: 1.8
ALP [7]: 821.6 IU/L
ALT [7]: 34.4 IU/L
AST [7]: 65.2 IU/L
BUN [7]: 24.4 mg/dL
CRE [7]: 0.6 mg/dL
Ca [7]: 10.8 mg/dL
Cl [7]: 106 meq/L
DBIL [7]: 0 mg/dL
GLC [7]: 199.2 mg/dL
IP [7]: 8.4 mg/dL
K [7]: 5 meq/L
LDH [7]: 105.2 IU/L
Na [7]: 138.4 meq/L
PL [7]: 155.4 mg/dL
RALB [7]: 4 g/dL
TBIL [7]: 0.3 mg/dL
TC [7]: 73.2 mg/dL
TG [7]: 113.2 mg/dL
TP [7]: 6.3 g/dL
gamma-GTP [7]: 1.4 IU/L
A/G [8]: 1.8
ALP [8]: 658.6 IU/L
ALT [8]: 31.6 IU/L
AST [8]: 61.4 IU/L
BUN [8]: 20.8 mg/dL
CRE [8]: 0.6 mg/dL
Ca [8]: 10.8 mg/dL
Cl [8]: 105.8 meq/L
DBIL [8]: 0.046 mg/dL
GLC [8]: 198.6 mg/dL
IP [8]: 7.3 mg/dL
K [8]: 4.8 meq/L
LDH [8]: 66.4 IU/L
Na [8]: 137.6 meq/L
PL [8]: 144.4 mg/dL
RALB [8]: 4.1 g/dL
TBIL [8]: 0.3 mg/dL
TC [8]: 69.2 mg/dL
TG [8]: 90.2 mg/dL
TP [8]: 6.4 g/dL
gamma-GTP [8]: 1.2 IU/L
